The source of these data is patent US11191773B2, “Methods of treatment for bacterial infections” (President and Fellows of Harvard College, priority 2017, dated 2021).

In brackets after ≈: the same amount, converted by molar mass. Where only a bound is given, the exact number is not on record here.

One assay has as its system ΔtolC. The assay is described as follows: Minimum inhibitory concentration assay. The assay is classed as cell-based, E. coli. The protocol:
(§1) We wondered whether it would be possible to separate novobiocin's ability to suppress the IptFG(ch) defects in vivo from its activity against DNA gyrase, its presumed primary target. […] Minimum inhibitory concentrations were measured after a 15-hr incubation period at 37° C.
(§2) Overnight cultures were prepared by transferring 5 mL of sterile LB Miller media to culture tubes and inoculating with the corresponding organism. The tubes were allowed to shake at 220 rpm, 37° C. overnight. 15 μL of overnight culture was diluted in 15 mL of LB Miller in a Falcon tube and was vortexed to mix. In a 96-well plate, 100 μL of diluted culture was added to each well. To column #1, an additional 100 μL of diluted culture and test compound was added (93.7 μL culture+6.35 μL 10 mg/mL novobiocin) or (94.2 μL culture+5.87 μL 10 mg/mL 1-adamantyl-novobiocin) such that the highest concentration tested was 500 μM. Transferred 100 μL from column #1 into column #2, etc, and mixed each time thoroughly. Repeated serial dilution until column #11. Incubated the plate at 37° C. overnight (˜16 h) and read the turbidity (OD600) using a Spectramax 384 plus plate reader (Molecular Devices).

Another assay has as its system wild type. The assay is described as follows: Minimum inhibitory concentration assay. The assay is classed as cell-based, E. coli. Particulars: Escherichia coli, 15 h, read-out: Minimum inhibitory concentration. The protocol: as §1, §2
The test system of a further assay is lptB1. The assay is described as follows: Minimum inhibitory concentration assay. In kind it is cell-based, E. coli. How it is done: as §1, §2
Assay [1] deals with T1, LptB2LptFG(ch)C complexes (Escherichia coli, UniProt P0A9V1).
T1 construct: made in house; host or cells: right-side-out membrane vesicles from E. coli BL-21(λDE3) overexpressing the complex
The assay is described as follows: LPS-release assay, right-side-out vesicles to LptA*. The assay is classed as biochemical, E. coli. Particulars: 30° C. (FIG. 9C). The protocol:
(§3) FIG. 9A is a schematic drawing showing the assay to monitor LPS release from right-side-out vesicles to LptA* (LptA(I36pBPA)). Vesicles containing overexpressed wild-type or mutant LptB2FGC complexes were incubated with LptA* and ATP at 30° C. to initiate LPS extraction and transport from the vesicles to LptA*. Samples were taken at different time points and UV-irradiated to crosslink LPS to LptA*, and accumulation of LPS-LptA* adducts was detected using LPS immunoblots.
(§4) The assay detects via immunoblot LPS that becomes crosslinked to LptA* in the presence of UV light. […] By comparison, vesicles containing LptB2LptFG(ch)C complexes released less LPS over time (FIG. 9B, lanes 5-8). These experiments provide direct evidence that the amino acid changes in LptFG(ch), which were known to affect complex formation with LptB, impair LPS release. […] These compounds also increase LPS release from vesicles containing wild-type LptB2FGC complexes or LptB(R91 S)2FGC complexes (FIG. 17).
The in vitro LPS-transport experiments in FIGS. 9B, 9C, and 17 were set-up as described in (Okuda et al. Science 2012, 338, 1214-1217) with some modifications. […]
(§5) Immunoblotting was used to assess LptA*-LPS levels in each sample. […] LptA levels were assessed similarly, using rabbit anti-LptA antiserum followed by donkey anti-rabbit horseradish peroxidase conjugate (GE Amersham). […]

Another assay relates to wild type and IptB1. The assay is described as follows: Plating assay (FIG. 14). The assay is classed as cell-based, E. coli. The protocol: (§6) Efficiency of plating assays were performed on indicated media using the method described in Butler et al., J. Bacteriol. 2013, 195, 4639-4649.
The subject of a further assay is IptFG(ch) mutant. The assay is described as follows: Rescue of growth of coupling helix mutant (plating and disk assays). In kind it is cell-based, E. coli. The protocol:
FIG. 8B is a series of pictures of bacterial overnight cultures grown in minimal medium. The cultures were serially diluted ten-fold and spotted onto LB agar plates with and without compounds.
FIG. 15 is a picture of bacterial lawns grown on plates in the presence of disks containing antibiotics. […] Strains were grown overnight in minimal media and then plated on LB plates. Each disk contained 5 μg compound.
The coupling helices in LptFG each contain a strictly-conserved glutamate, and changing both glutamates to alanine (IptFG(ch)) causes a lethal loss of function (FIG. 8B, LB panel). […] Because novobiocin also contacts R91 (FIG. 7C), we speculated that it might rescue growth of IptFG(ch) by masking the charge. […] We conclude that novobiocin suppresses Lpt defects in vivo by interacting with LptB at R91; therefore, novobiocin interacts with LptB in cells in a similar manner to that observed in the crystal structure.
Disk diffusion assays were performed as described in Sherman et al., Proc. Natl. Acad. Sci. USA 2014, 111, 4982-4987. Premade Sensi-Disc (BD-Beckton, Dickinson and Company) were used for bacitracin 10IU, erythromycin 15 μg, novobiocin 30 μg, and rifampin 5 μg.
as §6

Assay [2] deals with T2, wild-type LptB2FGC complexes (Escherichia coli, UniProt P0A9V1).
T2 construct: made in house; host or cells: right-side-out membrane vesicles from E. coli BL-21(λDE3) overexpressing the complex
The assay is described as follows: LPS-release assay, right-side-out vesicles to LptA*. The assay is classed as biochemical, E. coli. The following applies: overexpressed LptB2FGC vesicles, 30° C. for 1 hour (FIG. 9D, 9E). The protocol: as §3
FIG. 9D is a picture of an immunoblot showing that novobiocin and derivatives with impaired gyrase activities stimulate LPS transport in E. coli in vitro. […] Samples were UV irradiated at 365 nm for 5 minutes and then quenched with 2X SDS/5% β-mercaptoethanol. Samples were immunoblotted.
as §4
Samples were UV irradiated at 365 nm for 5 minutes and then quenched with 2X SDS/5% β-mercaptoethanol. Samples were immunoblotted.
The in vitro LPS-transport experiments in FIGS. 9B, 9C, and 17 were set-up as described in (Okuda et al. Science 2012, 338, 1214-1217) with some modifications. RSO-vesicles (50 μg total protein) were diluted into 100 μL reaction buffer (10% v/v glycerol, 20 mM Tris (pH 8.0), 150 mM NaCl, 5 mM sodium-ATP, 5 mM MgCl2), and incubated on ice with novobiocin, 1-adamantyl-novobiocin, or no compound for 15 minutes (50× compound stocks in water were used for each concentration). […]
as §5

In the next assay the test system is wild-type E. coli. Kind of assay: Checkerboard microdilution assay between PMB and clorobiocin / novobiocin (FIG. 9F). The following applies: 37° C. for 24 h. In kind it is cell-based. (In broth dilution the organism is exposed to a series of concentrations in liquid medium.)
For assay [3], the system named is E. coli strain ATCC 25922. The assay is described as follows: Neutropenic mouse thigh infection efficacy. In kind it is in vivo. The following applies: for Average log10 CFU/g of thigh: neutropenic CD-1 mice, 26 hours post infection. How it is done: Female CD-1 mice from Charles River Laboratories were allowed to acclimate for 5 days prior to start of study. Animals were housed four per cage with free access to food and water. Mice received two doses of cyclophosphamide on days −4 and −1 with 150 mg/kg and 100 mg/kg delivered IP, respectively. All procedures were performed to NeoSome IACUC policies and guidelines as well as OLAW standards.
E. coli strain ATCC 25922 was prepared for infection from an overnight plate culture. A portion of the plate was resuspended in sterile saline and adjusted to an OD of 0.15 at 625 nm. The adjusted bacterial suspension was further diluted to target an infecting inoculum of 1.5×10^5 CFU/mouse, the actual inoculum size for E. coli was 1.45×10^5 CFU/mouse. Plate counts of the inoculum was performed to confirm inoculum concentration.
Mice were inoculated with 100 μL of the prepared bacterial suspension via intramuscular injection into the right rear thigh.
Beginning at two hours post infection, mice were dosed with test agents subcutaneously at 10 mL/kg. A second dose of test agents was delivered at 6 hours post infection. For co-administered therapy, test agents were delivered separately at two different injection sites. Four animals were dosed per group. One group of four mice were euthanized at initiation of therapy (T=2 h) and CFUs determined. All remaining mice were euthanized at 26 hours post infection. At termination, thighs were aseptically excised, weighed, and homogenized to a uniform consistency in 2 mL of sterile saline. The homogenate was serially diluted and plated on bacterial growth media. The CFUs were enumerated after overnight incubation. The average and standard deviations for each group were determined.
Neutropenic mice infected with E. coli were treated with novobiocin, polymyxin B, or a combination of the two for the evaluation of efficacy is a thigh infection model.

The next assay deals with Klebsiella pneumoniae. The assay is described as follows: Minimal inhibitory concentrations, checkerboard microdilution. The assay is classed as cell-based. The following applies: grown at 37° C. for 24 h. The protocol:
(§7) Checkerboard microdilution assays between polymyxin B and novobiocin were performed in wild-type strains (unless otherwise noted) grown at 37° C. for 24 h. Checkerboard data (FIG. 1A-1F) are representative of at least three biological replicates. The following strains were tested: A) Wild-type Escherichia coli, ATCC 25922; B) Wild-type Enterobacter cloacae; ATCC 13047) Wild-type Klebsiella pneumoniae, ATCC 700721; D) Wild-type Pseudomonas aeruginosa, ATCC 15692 (PAO1); E) Wild-type Acinetobacter baumannii, ATCC 19606; F) novobiocin-resistant Acinetobacter baumannii, ATCC 19606 gyrB(R150C).

In a further assay the test system is Escherichia coli. The description is as above. The assay is classed as cell-based. The following applies: grown at 37° C. for 24 h. How it is done: as §7
Assay [4] has as its system Acinetobacter baumannii Novo^R. The description is as above. In kind it is cell-based. The following applies: grown at 37° C. for 24 h. The protocol:
as §7

Another assay deals with Pseudomonas aeruginosa. The assay is described as above. In kind it is cell-based. The following applies: grown at 37° C. for 24 h. The protocol: as §7
Setting [5] is: Escherichia coli, 15 h, read-out: Minimum inhibitory concentration.
Where [6] appears, read: PMB 0.03 mg/kg (total 0.06) BID/SC.
[7] abbreviates: PMB 0.1 mg/kg (total 0.2) BID/SC.
Setting [8] is: PMB 0.3 mg/kg (total 0.6) BID/SC.

T1 sequence (P0AF98 whole entry E84A): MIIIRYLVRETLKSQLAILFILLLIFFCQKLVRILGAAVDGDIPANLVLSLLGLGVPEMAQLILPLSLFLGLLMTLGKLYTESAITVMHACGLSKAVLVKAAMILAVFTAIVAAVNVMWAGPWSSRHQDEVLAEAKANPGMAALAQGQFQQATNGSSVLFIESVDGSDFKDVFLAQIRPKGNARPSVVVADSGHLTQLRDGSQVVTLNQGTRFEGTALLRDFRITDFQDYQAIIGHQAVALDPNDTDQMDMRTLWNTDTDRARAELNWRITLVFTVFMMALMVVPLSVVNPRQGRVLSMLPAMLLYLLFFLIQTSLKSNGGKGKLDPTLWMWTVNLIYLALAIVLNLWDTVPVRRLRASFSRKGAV
T1 sequence (P0ADC6 whole entry E88A, further chain): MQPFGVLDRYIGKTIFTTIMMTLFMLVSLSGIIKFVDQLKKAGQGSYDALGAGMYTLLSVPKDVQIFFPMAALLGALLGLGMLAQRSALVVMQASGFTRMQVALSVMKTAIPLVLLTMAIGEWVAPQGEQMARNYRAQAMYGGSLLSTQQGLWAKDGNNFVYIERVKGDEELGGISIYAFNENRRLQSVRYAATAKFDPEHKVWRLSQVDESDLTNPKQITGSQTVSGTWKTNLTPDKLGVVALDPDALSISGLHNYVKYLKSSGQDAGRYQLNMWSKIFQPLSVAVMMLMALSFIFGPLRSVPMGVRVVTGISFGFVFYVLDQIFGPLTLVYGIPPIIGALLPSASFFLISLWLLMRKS
T1 sequence (P0A9V1 2-241): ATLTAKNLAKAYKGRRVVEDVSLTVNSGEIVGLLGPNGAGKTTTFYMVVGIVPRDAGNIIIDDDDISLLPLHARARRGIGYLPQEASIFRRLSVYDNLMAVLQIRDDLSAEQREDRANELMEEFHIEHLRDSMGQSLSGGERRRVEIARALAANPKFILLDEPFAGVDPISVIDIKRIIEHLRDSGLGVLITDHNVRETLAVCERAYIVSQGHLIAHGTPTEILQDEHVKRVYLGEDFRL
T1 sequence (P0ADV9 whole entry, further chain): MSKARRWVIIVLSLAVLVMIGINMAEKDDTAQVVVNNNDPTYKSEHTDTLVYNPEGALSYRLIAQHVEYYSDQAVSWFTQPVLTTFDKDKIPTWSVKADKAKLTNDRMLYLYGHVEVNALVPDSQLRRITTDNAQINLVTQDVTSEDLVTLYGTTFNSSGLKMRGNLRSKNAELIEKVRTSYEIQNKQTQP
T2 sequence (P0AF98 whole entry): as the sequence (P0AF98 whole entry E84A) above, with A84E counted along it
T2 sequence (P0ADV9 whole entry, further chain): as the sequence (P0ADV9 whole entry, further chain) above
T2 sequence (P0ADC6 whole entry, further chain): as the sequence (P0ADC6 whole entry E88A, further chain) above, with A88E counted along it
T2 sequence (P0A9V1 2-241): as the sequence (P0A9V1 2-241) above

In the case of `COC1C(OC(N)=O)C(O)[C@H](Oc2ccc3c(O)c(NC(=O)C45CC6CC(CC(C6)C4)C5)c(=O)oc3c2C)OC1(C)C` (stereo partly drawn) [Novobiocin-adamantyl, (3R,4S,5R,6R)-6-((3-((3R,5S)-adamantane-1-carboxamido)-4-hydroxy-8-methyl-2-oxo-2H-chromen-7-yl)oxy)-5-hydroxy-3-methoxy-2,2-dimethyltetrahydro-2H-pyran-4-yl carbamate], the MIC in the assay on ΔtolC (setting [5]) is 125 to 250 µM (≈ 73.3 to 147 µg/mL); in the assay on wild type it was > 500 µM; in the assay with lptB1 (setting [5]) it was 125 µM (≈ 73.3 µg/mL). For the same compound, the “less potent in vivo compared to novobiocin” value in the assay on ΔtolC (efflux pump-deficient ΔtoIC strain) and in the assay on lptB1 (leaky IptB1 strain) was ~100 × throughout. The “LPS release from vesicles to LptA*” value in [1] is recorded as “stimulate LPS release from the LptB2LptFG(ch)C vesicles in a concentration dependent manner”. Besides, the “potency compared to novobiocin” value in the assay on wild type and IptB1 was “less potent than novobiocin”. In addition, the “suppression of lethality of IptFG(ch)” value in the assay on IptFG(ch) mutant (disks on LB plates, each disk 5 μg compound (FIG. 15)) is listed as “suppressed the lethality of IptFG(ch)”. The “rescue of growth of IptFG(ch)” value in the assay with IptFG(ch) mutant (serial dilutions spotted onto LB agar plates with compound (FIG. 8B)) is reported as “completely suppressed the lethality of IptFG(ch)”.
As to `CO[C@@H]1[C@@H](OC(=O)c2ccc(C)[nH]2)[C@@H](O)[C@H](Oc2ccc3c(O)c(NC(=O)c4ccc(O)c(CC=C(C)C)c4)c(=O)oc3c2Cl)OC1(C)C` [clorobiocin], the “LPS transport in vitro” value in assay [2] is on record as “highly stimulates LPS transport in vitro”. The “synergy with PMB” value in the assay on wild-type E. coli is “more potent synergy with PMB than novobiocin”.
As to polymyxin B, the “change in log10 CFU/g of thigh from 2 hour control” value is given as 3.91 log10 CFU/g of thigh in [3] (setting [6]), 3.95 log10 CFU/g of thigh in assay [3] (setting [7]), 3.38 log10 CFU/g of thigh in assay [3] (setting [8]) and 0.49 log10 CFU/g of thigh in assay [3] (PMB 1 mg/kg (total 2) BID/SC). For the same compound, the “change in log10 CFU/g of thigh from 26 hour controls” value in assay [3] (setting [6]) is recorded as −0.18 log10 CFU/g of thigh; in [3] (setting [7]) it was −0.13 log10 CFU/g of thigh; in assay [3] (setting [8]) it was −0.70 log10 CFU/g of thigh; in assay [3] (PMB 1 mg/kg (total 2) BID/SC) it was −3.60 log10 CFU/g of thigh. Also, the entries for the “reductions in CFUs from the 26 hour infection controls” value in assay [3] (Polymyxin B as a single agent at 0.2 mg/kg) and in assay [3] (Polymyxin B as a single agent at 1 mg/kg) were 0.70 log10 CFU/gram of thigh and 3.60 log10 CFU/gram of thigh, respectively. The “Average log10 CFU/g of thigh” value in [3] (setting [6]) was 9.44 log10 CFU/g of thigh; in assay [3] (setting [7]), 9.49 log10 CFU/g of thigh; in assay [3] (setting [8]), 8.92 log10 CFU/g of thigh; in [3] (PMB 1 mg/kg (total 2) BID/SC), 6.02 log10 CFU/g of thigh. Also, the MIC is 1 µg/mL in the assay on Klebsiella pneumoniae, 0.11 µg/mL in the assay with Escherichia coli, 0.28 µg/mL in assay [4] and >1 µg/mL with Pseudomonas aeruginosa.
